{"source": "patent US9435738B2", "about": "“System and device for characterizing cells” (The Johns Hopkins University, priority 2011, dated 2016)", "tested_on": "Mouse myoblasts (c2c12)", "assay": "microscopy-based assay measuring cell cycle phase and cell/nuclear properties simultaneously in the same cells", "details": "for cell cycle phase enriched / blocked by treatment: cell-cycle distribution vs control cells; for contribution to changes in nuclear size due to (uncontrolled) intrinsic changes in nuclear size in each phase / contribution to changes in nuclear size due to forced cell-cycle redistribution: population-averaged nuclear size, Eq. 2, FIG. 36 B; for time after release at which asynchronized (untreated) cell cycle distribution is recovered: release from synchronizing drug", "procedure": "For each type of cell, ˜10,000 cells were plated on a glass bottom dish (World Precision Instruments, Sarasota, Fla.). After incubation for 48 h, the treatment for synchronization was applied. To serum-starve cells, cells were washed three times with Hanks' balanced salt solution (HBSS) (GBICO) and cultured in serum-free medium for 72 h. For synchronization at early S phase, cells were treated with 2 mM of thymidine for 18 h twice. Between these two treatments, cells were rinsed with HBSS three times and cultured in normal growth medium to release cell cycle for 9 h. To synchronize cells in the M phase, cells were first treated with 2 mM of thymidine for 24 h. Followed by rinsing with HBSS three times, cells were released with normal growth medium for 3 h. After the short release, cells were treated with 100 ng/ml of microtubule-depolymerizing drug nocodazole for 12 h.\nCells were fixed with 3.7% of formaldehyde (Sigma) for 15 min at room temperature (RT). After fixation, cells were permeabilized with 0.1% Triton X-100 (Sigma) for 10 min and blocked for nonspecific binding with phosphate-buffered saline (PBS) supplemented with 10% of goat serum for 30 min. Cells were incubated with specific concentration of dye diluted from stock solution for 1 h. Nuclear DNA was stained with Hoechst 33342 (Sigma) at 1:40 dilution, Cytoplasm was stained with HCS CellMask Cy5 (Invitrogen) at 1:20000 dilution. Actin was stained with Phalloidin 488 (Invitrogen) at 1:40 dilution. PBS rinse was conducted three times between each step.\nFluorescent images were collected with a Nikon DS-QiMc camera installed on a customized Nikon TE300 microscope with a 10× Plan Fluor lens (N.A. 0.3, Nikon Melville, N.Y.), a motorized stage, and motorized excitation and emission filters (Prior Scientific, Rockland, Mass.) controlled by Nikon NIS Elements. Eighty-one (9-by-9 grid) fields of views were consistently generated using the software Nikon NIS-Elements. The size of the image acquired from the camera was 1280×1024 pixels, and the pixel size was 0.57 μm for a 10× objective. Our ΔX and ΔY for image capture was 662 μm and 520 μm respectively to allow 10% overlay between adjacent fields. The total size of the scanning region (81 images) was ˜28.5 mm^2. Four different channels (UV, GFP, Cy5, and phase contrast) were collected for every field of view. The calibration glass-bottom dish contained dyes for three different fluorescent channels, UV, GFP, and Cy5. For each fluorescence channel, UV, GFP, and Cy5, two calibration images were acquired: with and without illumination. The calibration images were used to reduce the non-uniform illumination of fluorescent images. All of the phenotypic information was calculated with a custom high throughput program (written in Matlab) developed in our laboratory. Typically >1,000 cells were analyzed per different biological repeat (i.e. different cells) for a total >3,000 cells for each tested condition.\nTo precisely segment individual cells and nuclei, we used slightly different approaches based on the same principle. For nuclear segmentation, because of the relatively circular shape and relatively even intensity of the Hoechst stain, we filtered calibrated images (as described in the previous section) with a 23×23 pixel normalized Gaussian filter (similar scale as the size of nuclei) and an averaging filter (same size) to obtain IG (Gaussian intensity) and IM (averaged intensity). Subtracting IM from IG gives IN, the nuclear intensity values without regional background.\nBecause cells are larger than their nuclei, a larger size of filters was needed. However, one major limitation with spatial domain image filters is non-continuous edges. Increasing the size of the filter increases the size of this “non-trustable” region. The use of a spatial filter 2r+1 in size will lead to the loss of r+1 pixels from the edge because of incomplete information, which greatly reduces the usable image size. […]", "data": [{"smiles": "CCNc1cc(N[C@H]2CC[C@H](O)CC2)nc(Nc2ccc3c(ccn3Cc3ccccc3)c2)n1", "note": "[Cdk4/6 inhibitor IV, trans-4-((6-(ethylamino)-2-((1-(phenylmethyl)-1H-indol-5-yl)amino)-4-pyrimidinyl)amino)-cyclohexanol]", "values": [{"measurement": "decrease in nuclear size of cells in the G0/G1 phase", "setting": "10 nM for 24 h, G0/G1 phase, P<0.0001", "result": "> 50", "unit": "%"}, {"measurement": "decrease in population-averaged cell size / nuclear size", "setting": "10 nM for 24 h, population-averaged, accompanied by rounding of the nucleus", "result": "~50", "unit": "%"}, {"measurement": "time after release during which cell properties continued to be affected", "setting": "after removing inhibitor", "result": "up to 6 h"}, {"measurement": "cell cycle phase enriched / blocked by treatment", "result": "blocked cells in the G0/G1 phase"}]}, {"smiles": "COC(=O)Nc1nc2ccc(C(=O)c3cccs3)cc2[nH]1", "note": "[nocodazole]", "values": [{"measurement": "increase in mean cell size in the G2/M phase compared to untreated (asynchronized) cells in the same phase", "result": 75, "unit": "%"}, {"measurement": "cell cycle phase enriched / blocked by treatment", "result": "M phase"}, {"measurement": "change in measured cell properties caused by synchronization", "setting": "compared phase-to-phase to control cells", "result": "> 30", "unit": "%"}, {"measurement": "contribution to changes in nuclear size due to (uncontrolled) intrinsic changes in nuclear size in each phase", "result": 41, "unit": "%"}, {"measurement": "contribution to changes in nuclear size due to forced cell-cycle redistribution", "result": 35, "unit": "%"}, {"measurement": "time after release at which asynchronized (untreated) cell cycle distribution is recovered", "result": 24, "unit": "h"}]}, {"smiles": "Cc1cn([C@H]2C[C@H](O)[C@@H](CO)O2)c(=O)[nH]c1=O", "note": "[thymidine]", "values": [{"measurement": "increase in mean size of cells in the G0/G1 phase compared to untreated (asynchronized) cells in the same phase", "setting": "G0/G1 phase", "result": 130, "unit": "%"}, {"measurement": "increase in mean cell size in the G2/M phase compared to untreated (asynchronized) cells in the same phase", "result": 220, "unit": "%"}, {"measurement": "mean size of treated cells in the S phase relative to mean size of untreated cells in the S phase", "setting": "S phase", "result": 2.2, "unit": "times"}, {"measurement": "increase in mean size of cells in the S phase compared to untreated cells in the same phase", "setting": "S phase, after forced synchronization", "result": 120, "unit": "%"}, {"measurement": "cell cycle phase enriched / blocked by treatment", "result": "S phase"}, {"measurement": "contribution to changes in nuclear size due to (uncontrolled) intrinsic changes in nuclear size in each phase", "result": 91, "unit": "%"}, {"measurement": "contribution to changes in nuclear size due to forced cell-cycle redistribution", "result": 9, "unit": "%"}, {"measurement": "time after release at which asynchronized (untreated) cell cycle distribution is recovered", "result": 24, "unit": "h"}]}]}
